Measurements reported in ChEMBL document CHEMBL6153025, “Multidrug-resistant bacteria quorum-sensing inhibitors: A particular focus on Pseudomonasaeruginosa” (Eur J Med Chem, 2025).
Values after ≈ are worked out from the molar mass of the structure shown. One block for each molecule: values may come before it.

Columns and labels:
Pseudomonas aeruginosa [1] = experiment: Antibiofilm activity against Pseudomonas aeruginosa PAO1 assessed as inhibition of biofilm formation at 1 to 100 uM incubated for 24 hrs by crystal violet staining based assay relative to control; assay type: functional; parameters: scale not given: the % may be the effect or the level left; details: dose 1-100 µM
Pseudomonas aeruginosa [2] = experiment: Inhibition of rhamnolipid production in Pseudomonas aeruginosa PAO1 incubated for 24 hrs by spectrophotometric analysis; assay type: functional, organism-based; details: PAO1, 24 h
Pseudomonas aeruginosa [3] = experiment: Antibiofilm activity against Pseudomonas aeruginosa PAO1; assay type: functional, organism-based
Pseudomonas aeruginosa [4] = experiment: Antibacterial activity against Pseudomonas aeruginosa PAO1 assessed as bacterial growth inhibition incubated for 24 hrs by micro-broth dilution method; assay type: functional
Pseudomonas aeruginosa [5] = experiment: Downregulation of lasR mRNA expression level in Pseudomonas aeruginosa PAO1 at 200 uM by RT-PCR analysis relative to control; assay type: functional
Pseudomonas aeruginosa [6] = experiment: Downregulation of lasI mRNA expression level in Pseudomonas aeruginosa PAO1 at 200 uM by RT-PCR analysis relative to control; assay type: functional
Pseudomonas aeruginosa [7] = experiment: Downregulation of rhlR mRNA expression level in Pseudomonas aeruginosa PAO1 at 200 uM by RT-PCR analysis relative to control; assay type: functional
Pseudomonas aeruginosa [8] = experiment: Downregulation of rhlI mRNA expression level in Pseudomonas aeruginosa PAO1 at 200 uM by RT-PCR analysis relative to control; assay type: functional
Pseudomonas aeruginosa [9] = experiment: Antimicrobial activity against Pseudomonas aeruginosa assessed as reduction in microbial growth; assay type: functional, organism-based
Pseudomonas aeruginosa [10] = experiment: Antibiofilm activity against Pseudomonas aeruginosa assessed as reduction in biofilm formation incubated for 24 hrs relative to control; assay type: functional; parameters: scale not given: the % may be the effect or the level left
Pseudomonas aeruginosa [11] = experiment: Anti-virulence activity against Pseudomonas aeruginosa assessed as reduction in protease production level at 100 uM incubated for 24 hrs by absorbance based assay relative to control; assay type: functional; parameters: scale not given: the % may be the effect or the level left
Pseudomonas aeruginosa [12] = experiment: Anti-virulence activity against Pseudomonas aeruginosa assessed as reduction in pyocyanin production level at 100 uM incubated for 24 hrs by absorbance based assay relative to control; assay type: functional; parameters: scale not given: the % may be the effect or the level left
Pseudomonas aeruginosa [13] = experiment: Antivirulence activity against Pseudomonas aeruginosa assessed as reduction in elastase level at 100 uM incubated for 24 hrs by elastin-Congo red staining based analysis relative to control; assay type: functional; parameters: scale not given: the % may be the effect or the level left
Pseudomonas aeruginosa [14] = experiment: Downregulation of lasR mRNA expression in Pseudomonas aeruginosa PAO1 incubated for 4 hrs by RT-qPCR analysis; assay type: functional, organism-based; details: PAO1, 4 h
Pseudomonas aeruginosa [15] = experiment: Downregulation of rhlR mRNA expression in Pseudomonas aeruginosa PAO1 incubated for 4 hrs by RT-qPCR analysis; assay type: functional, organism-based; details: PAO1, 4 h
Pseudomonas aeruginosa [16] = experiment: Downregulation of pqsR mRNA expression in Pseudomonas aeruginosa PAO1 incubated for 4 hrs by RT-qPCR analysis; assay type: functional, organism-based; details: PAO1, 4 h
Pseudomonas aeruginosa [17] = experiment: Downregulation of lasA mRNA expression in Pseudomonas aeruginosa PAO1 incubated for 4 hrs by RT-qPCR analysis; assay type: functional, organism-based; details: PAO1, 4 h
Pseudomonas aeruginosa [18] = experiment: Downregulation of lasB mRNA expression in Pseudomonas aeruginosa PAO1 incubated for 4 hrs by RT-qPCR analysis; assay type: functional, organism-based; details: PAO1, 4 h
Pseudomonas aeruginosa [19] = experiment: Downregulation of rhlI mRNA expression in Pseudomonas aeruginosa PAO1 incubated for 4 hrs by RT-qPCR analysis; assay type: functional, organism-based; details: PAO1, 4 h

- IC50 (Pseudomonas aeruginosa [2]): 50 µM
Structure (SMILES): O=C(/C=C/c1ccc(O)c(O)c1)c1ccc(O)cc1O [BUTEIN]
- Activity (Pseudomonas aeruginosa [1]): 72.45%

Structure (SMILES): O=c1c(O)c(-c2ccc(O)c(O)c2)oc2cc(O)cc(O)c12 [QUERCETIN]
- IC50 (Pseudomonas aeruginosa [3]): 100 µM
- MIC (Pseudomonas aeruginosa [4]): 1 µM (≈ 0.302 µg/mL)
- Activity (Pseudomonas aeruginosa [5]): 85%
- Activity (Pseudomonas aeruginosa [6]): 85%
- Activity (Pseudomonas aeruginosa [7]): 85%
- Activity (Pseudomonas aeruginosa [8]): 85%

Structure (SMILES): CCOP(=O)(NCCCCOc1cc(O)c2c(=O)cc(-c3ccccc3)oc2c1)OCC
- IC50 (Pseudomonas aeruginosa [9]): 100 µM
- Activity (Pseudomonas aeruginosa [10]): 78%
- Activity (Pseudomonas aeruginosa [11]): 18.8%
- Activity (Pseudomonas aeruginosa [12]): 63.8%
- Activity (Pseudomonas aeruginosa [13]): 42.2%
- IC50 (Pseudomonas aeruginosa [14]): 100 µM
- IC50 (Pseudomonas aeruginosa [15]): 100 µM
- IC50 (Pseudomonas aeruginosa [16]): 100 µM
- IC50 (Pseudomonas aeruginosa [17]): 100 µM
- IC50 (Pseudomonas aeruginosa [18]): 100 µM
- IC50 (Pseudomonas aeruginosa [19]): 100 µM
